Data from patent publication US20250144091A1, “SITAGLIPTIN PREPARATION AND METHOD OF STORAGE THEREOF” (SAWAI PHARMACEUTICAL CO., LTD., priority 2023, published 2025).

What was measured:
[1] = Acceptable daily intake of NTTP (EMA/FDA); conditions: 37 ng corresponds to 0.088 ppm
Method: Recently, the European Medicines Agency (EMA) and the U.S. Food and Drug Administration (FDA) have announced that 7-Nitroso-3-(trifluoromethyl)-5,6,7,8-tetrahydro[1,2,4]triazolo-[4,3-a]pyrazine (NTTP), which is classified into nitrosamines, has been detected in a sitagliptin preparation. Nitrosamines are known to be potentially carcinogenic, and an acceptable intake of NTTP is set at 37 ng daily. NTTP is produced by the reaction of 3-(trifluoromethyl) 5,6,7,8-tetrahydro[1,2,4]triazolo-[4,3-a]pyrazine, which is produced by hydrolysis of sitagliptin, with nitrogen oxides such as nitrous acid. Nitrogen oxides are contained in small amounts in additives, as well as in the water and air used in the preparation process. Although the production pathway of NTTP is expected as described above, its reactivity is unknown. Therefore, a specific method for reducing the amount of NTTP in a preparation was completely unknown.
Generally, the criterion for reporting the amount of related substances in a preparation is 1,000 ppm, but it is a very difficult task to suppress the production of NTTP in a sitagliptin preparation because a daily acceptable intake of NTTP of 37 ng corresponds to 0.088 ppm.

[2] = set limit for nitrosamine in sitagliptin preparation; cited from earlier work

## O=NN1CCn2c(nnc2C(F)(F)F)C1 [NTTP, 7-Nitroso-3-(trifluoromethyl)-5,6,7,8-tetrahydro[1,2,4]triazolo-[4,3-a]pyrazine]
[1]
  daily acceptable intake of NTTP expressed as content in the preparation: 0.088 ppm
[2]
  acceptable intake of NTTP: 37 ng daily
